Among the data in US20250115598A1 (Anaxis Pharma Pty Ltd, priority 2021, published 2025) are Kd values, retold here.

For orientation: Kd means the free concentration of one partner at which half of the binding sites on the other are occupied at equilibrium, for simple one-to-one binding.

The target of one assay is human MLKL (full length) (Homo sapiens (Human), UniProt Q8NB16). As to the kind of experiment: KINOMEscan binding assay, human MLKL (full length). The note with it: KINOMEscan, Table 21; read-out: Human MLKL (full-length) (KD). The essentials: (§1)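 In this assay, compounds displace DNA- or phage-tagged kinase from an immobilized ligand, and eluted kinase is quantified by qPCR.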

Another assay addresses human RIPK1 (Homo sapiens (Human), UniProt Q13546). As to the kind of experiment: KINOMEscan binding assay, human RIPK1. The note with it: Table 21. In a few lines: as §1
Another assay has as its target human RIPK3 (Homo sapiens (Human), UniProt Q9Y572). As to the kind of experiment: KINOMEscan binding assay, human RIPK3. To be noted: Table 21. The essentials:
as §1

Each structure is given as a SMILES string.

Sequence of human MLKL (full length) (Q8NB16 whole entry): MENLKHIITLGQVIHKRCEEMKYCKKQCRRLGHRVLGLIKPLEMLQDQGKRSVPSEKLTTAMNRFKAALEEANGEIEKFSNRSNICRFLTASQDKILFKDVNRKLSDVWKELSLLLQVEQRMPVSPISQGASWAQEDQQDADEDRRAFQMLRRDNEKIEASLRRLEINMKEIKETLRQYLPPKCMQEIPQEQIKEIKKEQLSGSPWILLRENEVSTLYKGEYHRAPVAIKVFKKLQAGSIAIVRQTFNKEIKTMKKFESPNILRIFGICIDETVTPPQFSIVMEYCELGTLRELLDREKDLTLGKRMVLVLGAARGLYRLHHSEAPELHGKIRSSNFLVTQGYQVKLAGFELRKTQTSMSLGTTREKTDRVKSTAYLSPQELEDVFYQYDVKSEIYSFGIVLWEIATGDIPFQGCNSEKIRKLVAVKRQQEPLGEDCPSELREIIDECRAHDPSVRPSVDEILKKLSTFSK
Sequence of human RIPK3 (Q9Y572 whole entry): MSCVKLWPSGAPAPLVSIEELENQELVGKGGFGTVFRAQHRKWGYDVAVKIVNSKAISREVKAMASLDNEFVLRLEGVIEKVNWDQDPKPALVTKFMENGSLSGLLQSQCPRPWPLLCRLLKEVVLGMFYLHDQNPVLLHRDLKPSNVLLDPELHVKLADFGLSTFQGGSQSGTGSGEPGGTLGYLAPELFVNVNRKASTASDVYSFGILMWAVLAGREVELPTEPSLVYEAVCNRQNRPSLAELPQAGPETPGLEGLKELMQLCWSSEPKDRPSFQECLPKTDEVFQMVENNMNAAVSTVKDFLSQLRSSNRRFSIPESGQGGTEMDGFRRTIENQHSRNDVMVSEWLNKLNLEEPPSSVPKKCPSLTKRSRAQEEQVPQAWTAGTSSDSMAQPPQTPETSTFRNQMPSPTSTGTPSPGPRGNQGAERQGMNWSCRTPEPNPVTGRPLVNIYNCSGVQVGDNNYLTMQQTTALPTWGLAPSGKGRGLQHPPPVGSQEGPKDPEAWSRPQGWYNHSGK
Sequence of human RIPK1 (Q13546 whole entry): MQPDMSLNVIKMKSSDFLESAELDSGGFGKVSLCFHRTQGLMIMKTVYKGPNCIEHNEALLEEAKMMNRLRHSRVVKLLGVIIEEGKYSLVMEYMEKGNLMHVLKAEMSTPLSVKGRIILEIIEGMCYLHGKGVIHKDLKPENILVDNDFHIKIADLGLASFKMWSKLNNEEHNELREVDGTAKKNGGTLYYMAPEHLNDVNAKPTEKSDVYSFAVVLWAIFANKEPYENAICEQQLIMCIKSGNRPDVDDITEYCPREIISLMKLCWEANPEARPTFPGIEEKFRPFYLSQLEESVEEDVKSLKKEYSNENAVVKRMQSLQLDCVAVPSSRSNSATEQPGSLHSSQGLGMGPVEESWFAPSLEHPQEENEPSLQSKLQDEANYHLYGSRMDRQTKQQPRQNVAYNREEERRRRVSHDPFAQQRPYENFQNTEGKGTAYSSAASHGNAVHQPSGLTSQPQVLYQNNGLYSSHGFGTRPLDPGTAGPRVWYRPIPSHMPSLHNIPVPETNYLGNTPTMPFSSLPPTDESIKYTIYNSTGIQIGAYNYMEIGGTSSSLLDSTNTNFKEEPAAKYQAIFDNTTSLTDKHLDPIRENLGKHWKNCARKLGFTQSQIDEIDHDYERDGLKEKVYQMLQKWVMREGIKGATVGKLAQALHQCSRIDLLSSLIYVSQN

With `C[C@H](Oc1cc(-c2cnn3c(-c4cnn(C5CCOCC5)c4)cnc(N)c23)ccc1NS(=O)(=O)C(F)F)c1ccc(F)cc1` [Compound 36, (S)-N-(4-(4-amino-7-(1-(tetrahydro-2H-pyran-4-yl)-1H-pyrazol-4-yl)pyrazolo[1,5-a]pyrazin-3-yl)-2-(1-(4-fluorophenyl)ethoxy)phenyl)-1,1-difluoromethane-sulfonamide], the Kd is < 0.001 µM at human MLKL (full length), > 10 µM on human RIPK1 and > 10 µM on human RIPK3.
For `C[C@H](Oc1cc(-c2cnn3c(-c4cnn(CCO)c4)cnc(N)c23)ccc1NS(=O)(=O)C(F)F)c1ccc(F)cc1` [Compound 37, (S)-N-(4-(4-amino-7-(1-(2-hydroxyethyl)-1H-pyrazol-4-yl)pyrazolo[1,5-a]pyrazin-3-yl)-2-(1-(4-fluorophenyl)ethoxy)phenyl)-1,1-difluoromethane-sulfonamide], the values for the Kd at human MLKL (full length), on human RIPK1 and at human RIPK3 were < 0.001 µM, > 10 µM and > 10 µM, respectively.
Turning to `C[C@H](Oc1cc(-c2nn(C)c3c(-c4cnn(C5COC5)c4)cnc(N)c23)ccc1NS(=O)(=O)C(F)F)c1ccc(F)cc1` [Compound 38, (S)-N-(4-(4-amino-1-methyl-7-(1-(oxetan-3-yl)-1H-pyrazol-4-yl)-1H-pyrazolo[4,3-c]pyridin-3-yl)-2-(1-(4-fluorophenyl)ethoxy)phenyl)-1,1-difluoromethanesulfonamide], the values for the Kd on human MLKL (full length), at human RIPK1 and on human RIPK3 were < 0.001 µM, > 10 µM and > 10 µM, respectively.
As for `C[C@H](Oc1cc(-c2cnn3c(-c4ccncc4)cnc(N)c23)ccc1NS(=O)(=O)C(F)F)c1ccc(F)cc1` [Compound 39, (S)-N-(4-(4-amino-7-(pyridin-4-yl)pyrazolo[1,5-a]pyrazin-3-yl)-2-(1-(4-fluoro-phenyl)ethoxy)phenyl)-1,1-difluoromethane-sulfonamide], the Kd is < 0.001 µM on human MLKL (full length), > 10 µM at human RIPK1 and > 10 µM at human RIPK3.
Turning to `C[C@H](Oc1cc(-c2nn(C)c3c(-c4ccncn4)cnc(N)c23)ccc1NS(=O)(=O)C(F)F)c1ccc(F)cc1` [Compound 40, (S)—N-(4-(4-amino-1-methyl-7-(pyrimidin-4-yl)-1H-pyrazolo[4,3-c]pyridin-3-yl)-2-(1-(4-fluorophenyl)ethoxy)phenyl)-1,1-difluoromethanesulfonamide], the Kd was < 0.001 µM on human MLKL (full length), > 10 µM at human RIPK1 and > 10 µM on human RIPK3.
Take `C[C@H](Oc1cc(-c2nn(C)c3c(-c4cnn(C5CCOC5)c4)cnc(N)c23)ccc1NS(=O)(=O)C(F)F)c1ccc(F)cc1` (stereo partly drawn) [Compound 41, N-(4-(4-amino-1-methyl-7-(1-(tetrahydrofuran-3-yl)-1H-pyrazol-4-yl)-1H-pyrazolo[4,3-c]pyridin-3-yl)-2-((S)-1-(4-fluorophenyl)ethoxy)phenyl)-1,1-difluoromethanesulfonamide]: the Kd on human MLKL (full length) is < 0.001 µM; at human RIPK1, > 10 µM; at human RIPK3, > 10 µM.
As to `CC(C)n1nc(-c2ccc(NS(=O)(=O)C(F)F)c(O[C@@H](C)c3ccc(F)cc3)c2)c2c(N)ncc(-c3ccncc3)c21` [Compound 50, (S)-N-(4-(4-amino-1-isopropyl-7-(pyridin-4-yl)-1H-pyrazolo[4,3-c]pyridin-3-yl)-2-(1-(4-fluorophenyl)ethoxy)phenyl)-1,1-difluoromethane-sulfonamide], the Kd on human MLKL (full length) is < 0.001 µM; at human RIPK1 it was > 10 µM; at human RIPK3 it was > 10 µM.
On to `CC#Cc1cnc(N)c2c(-c3ccc(NS(=O)(=O)C(F)F)c(O[C@@H](C)c4ccc(F)cc4)c3)nn(C)c12` [Compound 56, (S)-N-(4-(4-amino-1-methyl-7-(prop-1-yn-1-yl)-1H-pyrazolo[4,3-c]pyridin-3-yl)-2-(1-(4-fluorophenyl)ethoxy)phenyl)-1,1-difluoromethane-sulfonamide], for which the results for the Kd on human MLKL (full length), at human RIPK1 and at human RIPK3 were < 0.001 µM, > 10 µM and > 10 µM, respectively.
Turning to `C[C@H](Oc1cc(-c2nn(C)c3c(C#CC4CCOCC4)cnc(N)c23)ccc1NS(=O)(=O)C(F)F)c1ccc(F)cc1` [Compound 58, (S)-N-(4-(4-amino-1-methyl-7-((tetrahydro-2H-pyran-4-yl)ethynyl)-1H-pyrazolo[4,3-c]pyridin-3-yl)-2-(1-(4-fluorophenyl)ethoxy)phenyl)-1,1-difluoromethane-sulfonamide], the results for the Kd at human MLKL (full length), on human RIPK1 and on human RIPK3 were < 0.001 µM, > 10 µM and > 10 µM, respectively.
For `C[C@H](Oc1cc(-c2nn(C)c3c(-c4cnn(C5CCNCC5)c4)cnc(N)c23)ccc1NS(=O)(=O)C(F)F)c1ccc(F)cc1` [Compound 59, N-(4-{4-amino-1-methyl-7-[1-(piperidin-4-yl)-1H-pyrazol-4-yl]-1H-pyrazolo[4,3-c]pyridin-3-yl}-2-[(1 S)-1-(4-fluorophenyl)ethoxy]phenyl)-1,1-difluoromethanesulfonamide], the Kd was < 0.001 µM on human MLKL (full length), > 10 µM at human RIPK1 and > 10 µM on human RIPK3.
Take `Nc1n[nH]c2nccc(-c3ccc(NS(=O)(=O)C(F)F)c(OCc4ccc(F)cc4)c3)c12` [Compound 66, N-(4-(3-Amino-1H-pyrazolo[3,4-b]pyridin-4-yl)-2-((4-fluorophenyl)methoxy)phenyl)-1,1-difluoromethanesulfonamide]: the dissociation constant (Kd) is < 0.001 µM at human MLKL (full length), > 10 µM at human RIPK1 and > 10 µM at human RIPK3.
As to `Nc1n[nH]c2nccc(-c3ccc(NS(=O)(=O)CC(F)(F)F)c(OCc4ccc(F)cc4)c3)c12` [Compound 67, N-(4-(3-Amino-1H-pyrazolo[3,4-b]pyridin-4-yl)-2-((4-fluorophenyl)methoxy)phenyl)-2,2,2-trifluoroethane-1-sulfonamide], the Kd is < 0.001 µM on human MLKL (full length), > 10 µM at human RIPK1 and > 10 µM at human RIPK3.
Turning to `Nc1n[nH]c2ncnc(-c3ccc(NS(=O)(=O)C(F)F)c(OCc4ccc(F)cc4)c3)c12` [Compound 69, N-(4-(3-Amino-1H-pyrazolo[3,4-d]pyrimidin-4-yl)-2-((4-fluorophenyl)methoxy)phenyl)-1,1-difluoromethanesulfonamide], the Kd on human MLKL (full length) is < 0.001 µM; at human RIPK1, > 10 µM; at human RIPK3 it was > 10 µM.
With `Cc1cc(-c2ccc(NS(=O)(=O)C(F)F)c(OCc3ccc(F)cc3)c2)c2c(N)n[nH]c2n1` [Compound 70, N-(4-(3-Amino-6-methyl-1H-pyrazolo[3,4-b]pyridin-4-yl)-2-((4-fluorophenyl)methoxy)phenyl)-1,1-difluoromethanesulfonamide], the Kd at human MLKL (full length) is < 0.001 µM; on human RIPK1, > 10 µM; at human RIPK3, > 10 µM.
Take `C[C@H](Oc1cc(-c2ccnc3[nH]nc(N)c23)ccc1NS(=O)(=O)C(F)F)c1ccc(F)cc1` [Compound 72, N-(4-(3-Amino-1H-pyrazolo[3,4-b]pyridin-4-yl)-2-((1 S)-1-(4-fluorophenyl)ethoxy)phenyl)-1,1-difluoromethanesulfonamide]: the Kd was < 0.001 µM on human MLKL (full length), > 10 µM on human RIPK1 and > 10 µM on human RIPK3.
Take `C[C@H](Oc1cc(-c2nn(C)c3c(-c4cnn(C5CC6CCC(C5)N6C)c4)cnc(N)c23)ccc1NS(=O)(=O)C(F)F)c1ccc(F)cc1` (stereo partly drawn) [Compound 73, N-(4-(4-amino-1-methyl-7-(1-(8-methyl-8-azabicyclo[3.2.1]octan-3-yl)-1H-pyrazol-4-yl)-1H-pyrazolo[4,3-c]pyridin-3-yl)-2-((S)-1-(4-fluorophenyl)ethoxy)phenyl)-1,1-difluoromethanesulfonamide]: the Kd is < 0.001 µM at human MLKL (full length), > 10 µM on human RIPK1 and > 10 µM at human RIPK3.
